Reference: patent US20120244619A1, “COMPOSITION FOR PROMOTING DIFFERENTIATION OF PLURIPOTENT STEM CELLS INTO CARDIAC MUSCLE CELLS WHICH COMPRISES NITROVIN” (KYOTO UNIVERSITY, priority 2009, published 2012)

What was measured:
Format in all cases: cell-based
[1] = test system: CMK 6.4 cynomolgus monkey ES cells; experiment: Screening of agents which promote cardiac muscle cell differentiation of monkey ES cells (α-MHC promoter-GFP, HCS); details: 96-well, about 1-5 μM compound/well added day 6-14, read at day 14 of culture
Description: As described in FIG. 1, screening of agents which promote cardiac muscle cell differentiation of monkey ES cells was performed. A vector expressing green fluorescent protein (GFP) under control of a promoter of a-MHC gene, a marker of cardiac muscle cell differentiation, was introduced into monkey ES cell line (CMK 6.4 cynomolgus monkey ES cells) and the cells were seeded on 96-well culture plates (Greiner/655090: 96 well FIA black plate) in 5.0×10^2 cells/well, and cultured for 14 days in a differentiation medium for cardiac muscle cell differentiation (200 ml IMDM (Sigma 13390) containing 50 ml bovine fetal serum (GIBCO 10099-141), 2.5 ml MEM non-essential amino acid solution (Sigma M7145), 2.5 ml penicillin-streptomycin (GIBCO 15140), 2.5 ml 200 mM L-glutamine, 2 μl 2-mercaptoethanol (Sigma M7522), 255 μl 5N NaOH 255 μl). During day 6-14 of culture, 9,600 library compounds were added into separate wells (about 1-5 μM compound/well). Then, at day 14 of culture, GFP expression was determined by using HCS (high contents screening) system (Molecular device/MetaMorph imaging system). As a result, GFP fluorescence intensity was high in the wells added with nitrovin (FIG. 2).

[2] = test system: CMK 6.4 cynomolgus monkey ES cells; experiment: Effect of nitrovin for promoting cardiac muscle cell differentiation of monkey ES cells
Description: As described in Example 1, a vector expressing green fluorescent protein (GFP) was introduced into monkey ES cell line (CMK 6.4 cynomolgus monkey ES cells). The monkey ES cells were seeded and cultured on 6-well culture plates (Asahi Glass/5816-006: Ezview culture plate) in 4.0×10^6 cells/well. The culture medium was the same as described in Example 1. At day 6 of culture, nitrovin was added at a final concentration of 1 μM, 5 μM, or 20 μM. At day 18 of culture, fluorescence intensity of GFP and number of beating colonies of cardiac muscle cells were determined. When nitrovin was added, the fluorescence intensity and number of beating colonies increased up to about 5 times and about 10 times higher, respectively (FIGS. 3-1 and 3-2).

[3] = test system: human ES cell line (Kh−1); experiment: Effect of nitrovin for promoting cardiac muscle cell differentiation of human ES cells; details: nitrovin 1, 5 or 20 μM added at day 6, read at day 18
Description: As described in Example 1, a vector expressing green fluorescent protein (GFP) was introduced into human ES cell line (Kh−1). The human ES cells were seeded and cultured on 6-well culture plates (Asahi Glass/5816-006: Ezview culture plate) in 1.2×10^6 cells/well. The culture medium was the same as described in Example 1. At day 6 of culture, nitrovin was added at a final concentration of 1 μM, 5 μM, or 20 μM. At day 18 of culture, fluorescence intensity of GFP was determined.

[4] = test system: CMK 6.4 cynomolgus monkey ES cells; experiment: Comparison of nitrovin and cytokines in cardiac muscle cell differentiation of monkey ES cells; details: nitrovin 5 μM day 6-14; cytokines (bFGF, BMP4, VEGF, DKK1, Activin A) day 1-14; read at day 18
Description: Nitrovin and a mixture of cytokines (bFGF, BMP4, VEGF, DKK1, and Activin A) known as a promoter of cardiac muscle cell differentiation were compared as to increase of GFP fluorescence intensity, number of beating colonies of cardiac muscle cells, and expression of Troponin T, a marker of cardiac muscle cell differentiation.
As described in Example 1, a vector expressing green fluorescent protein (GFP) was introduced into monkey ES cell line (CMK 6.4 cynomolgus monkey ES cells). The culture medium was the same as described in Example 1. The monkey ES cells were seeded on 6-well culture plates and nitrovin (final concentration: 5 μM) or a mixture of cytokines (bFGF, BMP4, VEGF, DKK1, and Activin A) (final concentration: 5 ng/ml, 10 ng/ml, 10 ng/ml, 150 ng/ml, and 3 ng/ml, respectively) was added during day 6-14 of culture (nitrovin) or day 1-14 of culture (cytokines).

[5] = nitrovin 1, 5 or 20 μM added at day 6, read at day 18, maximal increase vs control (DMSO)

SMILES: N=C(N)NN=C(/C=C/c1ccc([N+](=O)[O-])o1)/C=C/c1ccc([N+](=O)[O-])o1 [nitrovin]
- GFP fluorescence intensity (GFP expression under α-MHC promoter) [1]: high
- most effective final concentration ([2]; among 1, 5 and 20 μM, GFP fluorescence intensity and beating colonies at day 18): 5 µM
- increase of GFP fluorescence intensity [2, 5]: about 5 times
- increase of number of beating colonies of cardiac muscle cells [2, 5]: about 10 times
- GFP fluorescence intensity [3]: increase of GFP fluorescence intensity induced by nitrovin was also observed
- GFP fluorescence intensity compared to the mixture of cytokines [4]: highly effective
- expression level of Troponin T compared to the mixture of cytokines [4]: highly effective
- number of beating colonies compared to the mixture of cytokines [4]: highly effective
